Where two headings read alike, the source gives them in different places.
Key:
TOV21G (NA) = test: SRB proliferation assay, TOV21G (non-amplified control); type: cell-based; conditions: 5-day incubation, control not amplified (NA)
Excerpt: (§1) All cell lines were obtained from ATCC except KPL1 which was obtained from Leibniz Institute DSMZ-German Collection of Microorganisms and Cell Cultures, and SMOV2 which was obtained from Dr. Hiroaki Itamochi (Tottori University School of Medicine, Yonago, Japan; see also: ‘Establishment and characterization of human ovarian clear cell adenocarcinoma cell line (SMOV-2), and its cytotoxity by anticancer agents’, Yonamine K at al., Hum Cell., 1999, 12(3), 139-48; and ‘PPM1D Is a Potential Therapeutic Target in Ovarian Clear Cell Carcinoma’, David S. P. Tan et al., Clin Cancer Res, 2009, 15, 2269).
(§2) Representative compounds were assessed in a sulforhodamine B (SRB) proliferation assay in the cell lines shown in the Tables below, according to the following general procedure:
(§3) Cells were seeded in a 96 well plate at a number optimized for each cell line as known in the art; for example as described in Viachai et al, Nature Protocols, 2006, 1 1112-1116. Two fold dilutions of the compounds to be tested were made in culture medium so that, when diluted 5×, the final concentration in the wells was from 50 μM to 0.000191 μM (19 concentrations). A day after seeding the cells in 96 well plates, 25 μl of the compound diluted in the culture medium was added to 100 μl of the cells and incubated at 37° C. and 5% CO2 for 3 or 5 more days as required. After this time, cells were fixed by adding 10% ice cold TCA (in H2O) to 3% final concentration in the wells and by incubating at 4° C. for at least 2 h. Plates were washed 4 times in H2O and allowed to dry in the air. Added 100 μl of 0.057% SRB solution to the dried plates and incubated at room temperature for at least 30 min. Removed SRB solution from the plates and washed four times with 1% acetic acid. Plates were left overnight to dry in the air followed by addition of 100 μl of 10 mM Tris pH 10.5 to each well of the dried plates and incubation on a shaker for 5 min to solubilize the SRB. Optical density was measured at wave length of 490 nm using a plate reader and analysis performed to measure the GI50 using GraphPad PRISM.

SMOV2 (A) = test: SRB proliferation assay, SMOV2 (PPM1D amplified); type: cell-based; conditions: Homo sapiens, SMOV2, PP1MD amplified cell line (A)
Excerpt: as §1, §2, §3

[1] = 72 h, 3-day incubation, read-out: GI50 3-day SMOV2 (A) SRB
[2] = 120 h, 5-day incubation, read-out: GI50 5-day SMOV2 (A) SRB

Structure (SMILES) | GI50 (TOV21G (NA); Homo sapiens, 120 h) [nM] | GI50 (SMOV2 (A); [1]) [nM] | GI50 (SMOV2 (A); [2]) [nM] | GI50 (TOV21G (NA)) [nM]
O=c1[nH]c2ccc(-c3csc(-c4ccc(F)cc4)n3)cc2o1 [Compound 1, 6-(2-(4-fluorophenyl)thiazol-4-yl)benzo[d]oxazol-2(3H)-one] | > 10000 | 9 | 1.1 | –
Cc1cc(F)ccc1-c1nc(-c2ccc3[nH]c(=O)oc3c2)cs1 [Compound 2, 6-(2-(4-fluoro-2-methylphenyl)thiazol-4-yl)benzo[d]oxazol-2(3H)-one] | > 10000 | 1.6 | 0.5 | –
Cc1cc(F)ccc1-c1nc(-c2ccc3c(c2)CC(=O)N3)cs1 [Compound 3, 5-(2-(4-fluoro-2-methylphenyl)thiazol-4-yl)indolin-2-one] | > 10000 | 1.2 | 0.5 | –
Cc1cc(F)ccc1-c1nc(-c2ccc3[nH]c(=O)[nH]c3c2)cs1 [Compound 4, 5-(2-(4-fluoro-2-methylphenyl)thiazol-4-yl)-1H-benzo[d]imidazol-2(3H)-one] | > 10000 | 0.2 | 0.1 | –
CCc1cc(F)ccc1-c1nc(-c2ccc3[nH]c(=O)oc3c2)cs1 [Compound 5, 6-(2-(2-ethyl-4-fluorophenyl)thiazol-4-yl)benzo[d]oxazol-2(3H)-one] | > 10000 | 13 | 9.7 | –
O=c1[nH]c2ccc(-c3csc(-c4ccc(F)cc4C4CC4)n3)cc2o1 [Compound 6, 6-(2-(2-cyclopropyl-4-fluorophenyl)thiazol-4-yl)benzo[d]oxazol-2(3H)-one] | – | 200 | – | –
C=CCc1cc(F)ccc1-c1nc(-c2ccc3[nH]c(=O)oc3c2)cs1 [Compound 7, 6-(2-(2-allyl-4-fluorophenyl)thiazol-4-yl)benzo[d]oxazol-2(3H)-one] | – | 77 | – | –
O=c1[nH]c2ccc(-c3csc(-c4ccc(F)cc4CO)n3)cc2o1 [Compound 8, 6-(2-(4-fluoro-2-(hydroxymethyl)phenyl)thiazol-4-yl)benzo[d]oxazol-2(3H)-one] | 9200 | 23 | 0.1 | –
O=c1[nH]c2ccc(-c3csc(-c4ccc(F)cc4CCO)n3)cc2o1 [Compound 9, 6-(2-(4-fluoro-2-(2-hydroxyethyl)phenyl)thiazol-4-yl)benzo[d]oxazol-2(3H)-one] | > 10000 | 7 | 0.6 | –
O=c1[nH]c2ccc(-c3csc(-c4ccc(F)cc4COCc4ccccc4)n3)cc2o1 [Compound 10, 6-(2-(2-((benzyloxy)methyl)-4-fluorophenyl)thiazol-4-yl)benzo[d]oxazol-2(3H)-one] | – | 300 | – | –
O=c1[nH]c2ccc(-c3csc(-c4ccc(F)cc4F)n3)cc2o1 [Compound 11, 6-(2-(2,4-difluorophenyl)thiazol-4-yl)benzo[d]oxazol-2(3H)-one] | > 10000 | 7 | 0.75 | –
O=c1[nH]c2ccc(-c3csc(-c4ccc(F)cc4CF)n3)cc2o1 [Compound 12, 6-(2-(4-fluoro-2-(fluoromethyl)phenyl)thiazol-4-yl)benzo[d]oxazol-2(3H)-one] | 5200 | 2 | 0.3 | –
CNCc1cc(F)ccc1-c1nc(-c2ccc3[nH]c(=O)oc3c2)cs1 [Compound 13, 6-(2-(4-fluoro-2-((methylamino)methyl)phenyl)thiazol-4-yl)benzo[d]oxazol-2(3H)-one] | 1600 | 32 | 6 | –
CN(C)Cc1cc(F)ccc1-c1nc(-c2ccc3[nH]c(=O)oc3c2)cs1 [Compound 14, 6-(2-(2-((dimethylamino)methyl)-4-fluorophenyl)thiazol-4-yl)benzo[d]oxazol-2(3H)-one] | 1600 | 10 | 2 | –
O=c1[nH]c2ccc(-c3csc(-c4ccc(F)cc4CN4CCOCC4)n3)cc2o1 [Compound 15, 6-(2-(4-fluoro-2-(morpholinomethyl)phenyl)thiazol-4-yl)benzo[d]oxazol-2(3H)-one] | – | 520 | – | –
CN(C)CCc1cc(F)ccc1-c1nc(-c2ccc3[nH]c(=O)oc3c2)cs1 [Compound 16, 6-(2-(2-(2-(dimethylamino)ethyl)-4-fluorophenyl)thiazol-4-yl)benzo[d]oxazol-2(3H)-one] | 9200 | 40 | 6 | –

Structure (SMILES) | GI50 (TOV21G (NA); Homo sapiens, 120 h) [nM] | GI50 (SMOV2 (A); [1]) [nM] | GI50 (SMOV2 (A); [2]) [nM] | GI50 (TOV21G (NA)) [nM]
COCCOCc1cc(F)ccc1-c1nc(-c2ccc3[nH]c(=O)oc3c2)cs1 [Compound 17, 6-(2-(4-fluoro-2-((2-methoxyethoxy)methyl)phenyl)thiazol-4-yl)benzo[d]oxazol-2(3H)-one] | 9400 | 1.2 | 0.1 | –
O=c1[nH]c2ccc(-c3csc(-c4ccc(F)cc4COCCO)n3)cc2o1 [Compound 18, 6-(2-(4-fluoro-2-((2-hydroxyethoxy)methyl)phenyl)thiazol-4-yl)benzo[d]oxazol-2(3H)-one] | 9500 | 1.7 | 0.9 | –
NCCOCc1cc(F)ccc1-c1nc(-c2ccc3[nH]c(=O)oc3c2)cs1 [Compound 19, 6-(2-(2-((2-aminoethoxy)methyl)-4-fluorophenyl)thiazol-4-yl)benzo[d]oxazol-2(3H)-one] | 1200 | 1.4 | 5 | 1700
O=c1[nH]c2ccc(-c3csc(-c4ccc(F)cc4COCCN4CCCC4)n3)cc2o1 [Compound 20, 6-(2-(4-fluoro-2-((2-(pyrrolidin-1-yl)ethoxy)methyl)phenyl)thiazol-4-yl)benzo[d]oxazol-2(3H)-one] | 1500 | 13 | 11 | –
Cc1cc(F)ccc1-c1nc(-c2ccc3[nH]c(=O)n(CCN(C)C)c3c2)cs1 [Compound 21, 1-(2-(dimethylamino)ethyl)-6-(2-(4-fluoro-2-methylphenyl)thiazol-4-yl)-1H-benzo[d]imidazol-2(3H)-one] | 7200 | 8 | 0.1 | –
CCc1cc(F)ccc1-c1nc(-c2ccc3[nH]c(=O)[nH]c3c2)cs1 [Compound 22, 5-(2-(2-ethyl-4-fluorophenyl)thiazol-4-yl)-1H-benzo[d]imidazol-2(3H)-one] | 660 | 0.38 | 0.2 | –
Cc1cc(-c2nc(-c3ccc4[nH]c(=O)oc4c3)cs2)ccc1F [Compound 23, 6-(2-(4-fluoro-3-methylphenyl)thiazol-4-yl)benzo[d]oxazol-2(3H)-one] | – | 250 | – | –
O=c1[nH]c2ccc(-c3csc(-c4ccc(F)c(F)c4)n3)cc2o1 [Compound 24, 6-(2-(3,4-difluorophenyl)thiazol-4-yl)benzo[d]oxazol-2(3H)-one] | – | 290 | – | –
Cc1cc(F)cc(C)c1-c1nc(-c2ccc3[nH]c(=O)oc3c2)cs1 [Compound 25, 6-(2-(4-fluoro-2,6-dimethylphenyl)thiazol-4-yl)benzo[d]oxazol-2(3H)-one] | – | 500 | – | –
Cc1c(F)ccc(-c2nc(-c3ccc4[nH]c(=O)oc4c3)cs2)c1F [Compound 26, 6-(2-(2,4-difluoro-3-methylphenyl)thiazol-4-yl)benzo[d]oxazol-2(3H)-one] | – | > 10000 | – | –
Cc1c(-c2nc(-c3ccc4[nH]c(=O)oc4c3)cs2)ccc(F)c1F [Compound 27, 6-(2-(3,4-difluoro-2-methylphenyl)thiazol-4-yl)benzo[d]oxazol-2(3H)-one] | > 10000 | 1.2 | 0.2 | –
O=C1Cc2cc(-c3csc(-c4ccc(F)cc4)n3)c(Cl)cc2N1 [Compound 28, 6-chloro-5-(2-(4-fluorophenyl)thiazol-4-yl)indolin-2-one] | – | 93 | – | –
O=C1Cc2cc(-c3csc(-c4ccc(F)cc4F)n3)c(Cl)cc2N1 [Compound 29, 6-chloro-5-(2-(2,4-difluorophenyl)thiazol-4-yl)indolin-2-one] | – | 1900 | – | –
O=c1[nH]c2ccc(-c3cccc(-c4ccc(F)cc4)n3)cc2o1 [Compound 30, 6-(6-(4-fluorophenyl)pyridin-2-yl)benzo[d]oxazol-2(3H)-one] | 2700 | 280 | 35 | –
Cc1cc(F)ccc1-c1cccc(-c2ccc3[nH]c(=O)oc3c2)n1 [Compound 31, 6-(6-(4-fluoro-2-methylphenyl)pyridin-2-yl)benzo[d]oxazol-2(3H)-one] | – | > 10000 | – | –
